# Like-named read-outs stand apart in the source and are kept apart here.
# How the values were obtained:
# [1] = Pharmacokinetics of Compound II given orally and intravenously to cancer patients (plasma, LC/MS/MS); type: in vivo, human; conditions: for Tmax / Cmax / bioavailability: human, plasma; for bioavailability: read-out: % F (absolute bioavailability)
# Protocol: Patients with Advanced Malignancies were administered Compound II weekly as a 30-minute infusion (a course=3 intravenous weekly administrations). Patients received doses of 1, 2.5, 5, 10, 20, 25, or 30 mg/m^2. […] The dose of oral Compound II administered on Day 6 matched the dose of IV Compound II administered on day 1. Serial plasma sampling was obtained on day 6 and day 1 of course 1 to assess pharmacokinetics by an LC/MS/MS.
# Samples were analyzed by adding an internal standard to 0.2 mL of plasma sample, precipitating with acetone, and then extracting the supernatant with 1-chlorobutane. The organic layer was removed and evaporated to dryness. The residue was reconstituted and injected into the LC/MS/MS system. Chromatographic separation was achieved, isocratically, on a YMC ODS-AQ column (4.6×50 mm, 3:m) with a mobile phase of acetonitrile:0.01M ammonium acetate, pH 5.0 (65:35). Detection was by negative electrospray tandem mass spectrometry. The standard curve, which ranged from 2 to 500 ng/mL for all analytes and was fitted to a 1/x weighted quadratic regression model.
# The propylene glycol/ethanol mixture was prepared by mixing 80 parts by volume of propylene glycol and 20 parts by volume of ethanol in a suitable container and gently swirling the container until the solution was completely mixed.
# Buffer for use with Compound II was constituted with water for injection (WFI).
# Compound II was prepared for administration to patients by using a suitable syringe to slowly inject 2.5, 5, or 10 mL of the propylene glycol/ethanol mixture into the 20 cc vial containing 25 mg/vial of Compound II, to give concentrations of 10, 5, or 2.5 mg/mL, respectively, depending on the dose to be administered to the patient. The syringe was removed and the vial shaken vigorously for 10 seconds. The vial was placed in a sonication bath and sonicated until the solution became clear. Vials were pooled depending on the dose.
# The bottle was shaken vigorously or sonicated with intermittent shaking until a clear solution was obtained.
# Following oral administration on day 6, 7 mL blood samples was collected into Becton Dickinson Vacutainer tubes with K3EDTA as anticoagulent (lavender-colored top) according to the following schedule (expressed as hours:minutes from the start of the oral administration): predose, 00:15, 00:30, 00:45, 1:00, 1:30, 2:00, 3:00, 4:00, 6:00, 8:00, 24:00, 48:00, and 72:00. Following IV administration on day 1, 7 mL blood samples were collected into Becton Dickinson Vacutainer tubes with K3EDTA as anticoagulent (lavender-colored top) according to the following schedule (expressed as hours:minutes from the start of the IV infusion):predose, 00:15, 00:30 (end-of infusion), 00:45, 1:00, 1:30, 2:00, 3:00, 4:00, 6:00, 8:00, 24:00, 48:00, and 72:00.
# Immediately after blood collection, the Vacutainer tubes were inverted several times to ensure mixing with the anticoagulant and then immediately placed on crushed ice. Within 30 minutes of collection, samples were centrifuged for 5 minutes at approximately 2000×g and 0 to 5 EC. The plasma was then transferred to separate pre-labeled screw-capped polypropylene tubes and stored at −70 EC until bioanalysis. Plasma concentrations of Compound II were analyzed using the LC/MS/MS assay.
# The plasma concentration versus time data were analyzed using non-compartmental methods. The pharmacokinetic parameters determined for Compound II included the maximum observed plasma concentration (Cmax), time to reach Cmax (Tmax), area under the plasma concentration time curve from time zero to the time of last sampling time T(AUC(0-T)).
# A total of 18 patients have received oral Compound II as a solution on day 6 and by IV on day 1.
# [2] = Dose escalation study of weekly IV Compound II in cancer patients (MTD, dose limiting toxicity); type: in vivo, human; conditions: 30 minute IV infusion every week
# Description: (§1) A total of 24 cancer patients (12 male and 12 female) received compound II by IV administration to evaluate the maximum tolerated dose (MTD), the dose limiting toxicity (DLT), the pharmacokinitics and pharmacodynamics, and to evaluate the anti-tumor activity of compound II. The median age (range) of the patients was 57 (34-74). 5 patients had breast cancer, 5 patients had head and neck cancer, 2 patients had sarcoma, 2 patients had colorectal cancer, 2 patients had UPT cancer, 2 patients had melanoma, 2 patients had cancer of the esophagus, 1 patient had renal cancer, 1 patient had cervical cancer, 1 patient had thyroid cancer, and 1 patient had anal cancer. 21 patients had received prior chemotherapy (18 patients received neurotoxic agents and 18 patients received radiotherapy). The median number of prior chemotherapy lines including adjuvant (range) was 2 (1-3).
# Patients were orally administered compound II on day 1 (for dose levels of 20 mg/m^2 and higher) followed by a 30 minute IV infusion of compound II every week starting on day 7. Patients were administered compound II at doses of 1, 2.5, 5, 10, 20, 25, and 30 mg/m^2.
# breast tumors = assay: Anti-tumor response in previously treated cancer patients, breast tumors; type: in vivo, human; conditions: breast cancer patients previously treated with chemotherapy
# Description: as §1
# (§2) In a second study a total of 12 cancer patients (5 male and 7 female) were orally administered compound II on day 1 followed by a 30 minute IV infusion of compound II every week starting on day 7 at a dose of 25 mg/m^2 to evaluate neurotoxicity of compound II. The median age (range) of the patients was 51 (30-65). 4 patients had colorectal cancer, 3 patients had breast cancer, 2 patients had melanoma, 1 patient had renal cancer, 1 patient had sarcoma, and 1 patient had ovary cancer. […]
# colon tumors = assay: Anti-tumor response in previously treated cancer patients, colon tumors; type: in vivo, human; conditions: metastatic colon cancer patients previously treated with chemotherapy
# Description: as §1, §2
# [3] = Stability of the drug during dissolution in tertiary butanol/water and lyophilization; type: physicochemical; conditions: tertiary butanol/Water for Injection 1:1 at 5 EC, lyophilized at −16 EC 48 hours, dried at 15 EC 48 hours, light protected
# Protocol: [1S-[1R*,3R*(E),7R*,10S*,11R*,12R*,16S*]]-7,11-Dihydroxy-8,8,10,12,16-pentamethyl-3-[1-methyl-2-(2-methyl-4-thiazolyl)ethenyl]-4-aza-17-oxabicyclo[14.1.0]heptadecane-5,9-dione, 9.86 g, was wetted/partially dissolved with 600 mL of a 9:1 mixture of tertiary butanol and Water for Injection USP which had been pre-cooled to 5 EC. Once the drug powder had become completely wetted, dissolution was completed by the addition of 600 mL of a 1:9 mixture of tertiary butanol and Water for Injection and 766 mL of a 1:1 mixture of tertiary butanol and Water for Injection which likewise had been pre-cooled to 5 EC thereby making the final solution a 1:1 mixture. The dissolution was carried out under protection from light.
# The solution formed above was promptly lyophilized in a Virtis INOTOP lyophilizer at −16 EC under light protectant conditions over a period of 48 hours. The resultant lyophilized product (lyophile) was then further dried at 15 EC under high vacuum for 48 hours. […] The lyophile was packaged under sterile conditions into 30 mL vials, each containing 10 mg of drug and standard excess to allow for vial/needle/syringe loss.
smiles,measurement,setting,value
"C/C(=C\c1csc(C)n1)C1C[C@@H]2O[C@]2(C)CCC[C@H](C)[C@H](O)[C@@H](C)C(=O)C(C)(C)[C@@H](O)CC(=O)N1 (relative stereo) [Compound II, [1S-[1R*,3R*(E),7R*,10S*,11R*, 12R*,16S*,]]-7,11-Dihydroxy-8,8,10,12,16-pentamethyl-3-[1-methyl-2-(2-methyl-4-thiazolyl)ethenyl]-4-aza-7-oxabicyclo[14.1.0]heptadecane-5,9-dione]",AUC(0-T),"[1]; 20 mg/m^2, IV, patients N=3, mean",796 H · ng/mL
same,AUC(0-T),"[1]; 20 mg/m^2, oral solution, patients N=3, mean",404 H · ng/mL
same,AUC(0-T),"[1]; 25 mg/m^2, IV, patients N=11, mean",848 H · ng/mL
same,AUC(0-T),"[1]; 25 mg/m^2, oral solution, patients N=11, mean",533 H · ng/mL
same,AUC(0-T),"[1]; 30 mg/m^2, IV, patients N=4, mean",1155 H · ng/mL
same,AUC(0-T),"[1]; 30 mg/m^2, oral solution, patients N=4, mean",708 H · ng/mL
same,Tmax,"[1]; 20 mg/m2, 20 mg/m^2, IV, patients N=3, median",15 min
same,Cmax,"[1]; 20 mg/m2, 20 mg/m^2, oral solution, patients N=3, mean",142 ng/mL
same,Tmax,"[1]; 20 mg/m2, 20 mg/m^2, oral solution, patients N=3, median",60 min
same,Tmax,"[1]; 25 mg/m2, 25 mg/m^2, IV, patients N=11, median",30 min
same,Cmax,"[1]; 25 mg/m2, 25 mg/m^2, oral solution, patients N=11, mean",180 ng/mL
same,Tmax,"[1]; 25 mg/m2, 25 mg/m^2, oral solution, patients N=11, median",30 min
same,Tmax,"[1]; 30 mg/m2, 30 mg/m^2, IV, patients N=4, median",30 min
same,Cmax,"[1]; 30 mg/m2, 30 mg/m^2, oral solution, patients N=4, mean",274 ng/mL
same,Tmax,"[1]; 30 mg/m2, 30 mg/m^2, oral solution, patients N=4, median",30 min
same,Cmax,"[1]; 20 mg/m^2, IV 30-minute infusion, patients N=3, mean",251 ng/mL
same,bioavailability,"[1]; 20 mg/m^2, oral solution vs IV, patients N=3, mean",43.5%
same,Cmax,"[1]; 25 mg/m^2, IV 30-minute infusion, patients N=11, mean",447 ng/mL
same,bioavailability,"[1]; 25 mg/m^2, oral solution vs IV, patients N=11, mean",55.6%
same,Cmax,"[1]; 30 mg/m^2, IV 30-minute infusion, patients N=4, mean",711 ng/mL
same,bioavailability,"[1]; 30 mg/m^2, oral solution vs IV, patients N=4, mean",62.2%
same,weekly dose administered without severe toxicity being observed,[2],up to 30 mg/m^2
same,tumor response to treatment,breast tumors,responded
same,tumor response to treatment,colon tumors,responded
same,"degradation of the drug during dissolution, lyophilization and drying",[3],No detectable degradation

# Source: US6670384B2, “Methods of administering epothilone analogs for the treatment of cancer” (Bristol-Myers Squibb Company, priority 2001, dated 2003)
